≈ marks a conversion by molar mass, not a printed value.
Assays:
HUVEC [1] = assay: Antiproliferative activity against FGF-induced HUVEC; assay type: functional, cell-based; details: Homo sapiens
[2] = target: Vascular endothelial growth factor receptor 2 (Homo sapiens, UniProt P35968); assay: Inhibition of KDR
[3] = Aqueous solubility in simulated intestinal fluid at pH 6.8; assay type: physicochemical
HUVEC [4] = assay: Antiproliferative activity against VEGF-induced HUVEC; assay type: functional, cell-based; details: Homo sapiens

Chain of Vascular endothelial growth factor receptor 2 (P35968 whole entry): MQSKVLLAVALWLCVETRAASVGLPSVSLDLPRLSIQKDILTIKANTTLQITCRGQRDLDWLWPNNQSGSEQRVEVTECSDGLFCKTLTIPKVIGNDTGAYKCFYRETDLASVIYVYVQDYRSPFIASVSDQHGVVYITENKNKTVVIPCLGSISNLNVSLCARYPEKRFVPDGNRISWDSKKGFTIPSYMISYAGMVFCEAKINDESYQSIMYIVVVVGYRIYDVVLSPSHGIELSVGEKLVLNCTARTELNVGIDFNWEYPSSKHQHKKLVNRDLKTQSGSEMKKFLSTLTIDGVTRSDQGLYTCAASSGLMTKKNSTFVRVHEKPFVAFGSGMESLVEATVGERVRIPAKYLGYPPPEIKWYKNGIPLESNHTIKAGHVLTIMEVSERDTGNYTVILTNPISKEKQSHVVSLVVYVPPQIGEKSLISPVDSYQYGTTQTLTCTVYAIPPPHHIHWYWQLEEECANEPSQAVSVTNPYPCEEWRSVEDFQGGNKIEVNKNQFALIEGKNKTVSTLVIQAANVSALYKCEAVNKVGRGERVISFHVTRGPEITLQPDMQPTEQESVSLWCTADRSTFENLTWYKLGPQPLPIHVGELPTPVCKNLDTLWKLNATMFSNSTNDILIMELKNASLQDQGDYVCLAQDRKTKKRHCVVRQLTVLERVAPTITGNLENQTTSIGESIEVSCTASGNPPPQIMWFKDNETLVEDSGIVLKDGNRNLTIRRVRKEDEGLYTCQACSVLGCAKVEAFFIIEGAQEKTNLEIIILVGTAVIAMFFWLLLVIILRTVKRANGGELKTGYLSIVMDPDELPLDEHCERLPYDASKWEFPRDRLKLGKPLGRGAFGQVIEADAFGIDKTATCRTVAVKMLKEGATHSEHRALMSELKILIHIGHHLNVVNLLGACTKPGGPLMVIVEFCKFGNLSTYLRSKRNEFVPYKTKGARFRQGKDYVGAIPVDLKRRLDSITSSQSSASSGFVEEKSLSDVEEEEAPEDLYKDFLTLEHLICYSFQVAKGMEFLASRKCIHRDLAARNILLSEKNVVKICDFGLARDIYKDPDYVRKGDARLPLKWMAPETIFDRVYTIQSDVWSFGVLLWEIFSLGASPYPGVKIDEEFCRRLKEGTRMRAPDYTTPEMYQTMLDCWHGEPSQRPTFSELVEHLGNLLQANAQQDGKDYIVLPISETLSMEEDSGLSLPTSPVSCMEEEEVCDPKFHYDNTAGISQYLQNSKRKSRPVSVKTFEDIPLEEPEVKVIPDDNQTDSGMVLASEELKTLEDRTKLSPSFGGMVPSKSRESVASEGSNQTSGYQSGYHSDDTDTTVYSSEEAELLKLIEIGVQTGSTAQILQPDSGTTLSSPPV

SMILES | IC50 [2] [nM] | solubility [3] [µg/mL] | IC50 (HUVEC [1]) [nM] | IC50 (HUVEC [4]) [nM]
COc1cc2nccc(Oc3ccc4c(C(=O)Nc5ccc(Cl)cc5)cccc4c3)c2cc1OC |  |  | > 1140 | 
COc1cc2nccc(CN3CCc4c(cccc4C(=O)Nc4ccc(C(C)(C)C)cc4)C3)c2cc1OC | 1 | 34 (≈ 66.7 µM) | > 1140 | 6
COCCNC(=O)c1cccc2c1CCN(Cc1ccnc3cc(OC)c(OC)cc13)C2 | 3000 | > 200 |  | 

Further lines, with some results ahead:

IC50 [2] [nM] | solubility [3] [µg/mL] | SMILES | IC50 (HUVEC [1]) [nM] | IC50 (HUVEC [4]) [nM]
165 | 12 (≈ 24.6 µM) | COc1cc2nccc(CN3CCc4c(cccc4C(=O)Nc4ccc(Cl)cc4)C3)c2cc1OC |  | 
3 | 24 (≈ 42.1 µM) | COc1cc2nccc(CN3CCc4c(C(=O)Nc5ccc(Cl)c(C(F)(F)F)c5)cccc4C3=O)c2cc1OC | > 1140 | 22
